# Article PMC7904550, “Application of grouping and read-across for the evaluation of parabens of different chain lengths with a particular focus on endocrine properties” (Archives of Toxicology, 2021)
# Like-named read-outs stand apart in the source and are kept apart here. Marks after values point to notes of the source that are not given here.
# Tests used:
# [1] = Acid dissociation constant (pKa); format: physicochemical; conditions: OECD TG 112; read-out: pKa
# Text: Generally, these parabens have very similar physico-chemical properties.
# [2] = test system: Wistar rats; conditions: ref Food and Drug Research Laboratories 1972, cited from earlier work; for NOAEL, developmental toxicity: similar to OECD 414, conducted 1972, highest dose tested, GD 6–15
# [3] = test system: rats; conditions: OECD 478; ref ECHA dissemination portal; cited from earlier work
# [4] = test system: Wistar rats; experiment: Extended one-generation reproductive toxicity study (OECD TG 443); format: in vivo, rat; conditions: for NOAEL, EOGRTS: developmental and reproductive toxicity: OECD 443 v 2018, oral gavage
# Text: (§1) Healthy and specific pathogen-free male and female (non-pregnant and nulliparous) Wistar Crl: WI(Han) rats were obtained from Charles River Laboratories (Germany). […] Upon arrival at BSL BIOSERVICE, the animals underwent an acclimatisation period of at least 5 days, and they were approximately 15–16 weeks old at the onset of the treatment period.
# [5] = test system: oestrogen receptors; set-up: method as in Byford et al. 2002; conditions: ref Byford et al. 2002; cited from earlier work
# [6] = test system: Wistar rats; experiment: Reproductive toxicity screening combined with 28-day repeated dose toxicity study (OECD TG 422); format: in vivo, rat; conditions: for NOAEL, reproductive toxicity: OECD 422 v 2016, oral gavage
# Text: as §1
# [7] = test system: mammalian cells; conditions: OECD 473 or 487; ref ECHA dissemination portal; cited from earlier work
# [8] = test system: rats; experiment: Genetic toxicity in vivo (rats); set-up: species or system rat; conditions: in vivo OECD TG 478 overriding in vitro OECD TG 473
smiles,measurement,setting,value
"COC(=O)c1ccc(O)cc1 [Methyl paraben, Methyl 4-hydroxybenzoate]",pKa,[1],8.4
same,NOAEL: No. of foetal deaths; viable foetuses,"[2]; TG 414-like, highest dose",550 mg/kg bw/day
same,No. of foetal deaths; viable foetuses,"[2]; TG 414-like, up to 550 mg/kg bw/day",NAE / NAE
same,Triiodothyronine / thyroxine level,"[2]; dams, TG 414-like, up to 550 mg/kg bw/day",NAE / NAE (dams)
same,"NOAEL, developmental toxicity",[2],NOAEL: 550 (highest dose tested) (similar to OECD 414; conducted 1972) mg/kg body weight/day
same,"NOAEL, developmental toxicity",[2]; listed as methyl paraben,550 mg/kg body weight/day
same,Genetic toxicity in vivo (rats) classification,[3],Not clastogenic (OECD 478; 1974) [d]
same,Developmental immunotoxicity (DIT),[4]; DIT cohort,did not exhibit
same,Developmental neurotoxicity (DNT),[4]; DNT cohort,did not exhibit DNT
same,"NOAEL, EOGRTS: developmental and reproductive toxicity",[4],NOAEL: 1000 (OECD 443; v 2018) mg/kg body weight/day
same,"NOAEL, EOGRTS: developmental and reproductive toxicity",[4]; listed as methyl paraben,1000 mg/kg body weight/day
same,Accessory sex organs HP,"[4]; P0, F1, (F2)",NAE / NAE
same,Adrenals HP,"[4]; P0, F1, (F2)",NAE / NAE
same,Adrenals weight,"[4]; P0, F1, (F2)",NAE / NAE
same,Age at balano-preputial separation,"[4]; P0, F1, (F2)",NAE / NAE
same,Age at vaginal opening,"[4]; P0, F1, (F2)",NAE / NAE
same,Anogenital distance,"[4]; P0, F1, (F2)",NAE / NAE
same,Auditory startle,"[4]; P0, F1, (F2)",NAE / NAE
same,Brain HP,"[4]; P0, F1, (F2)",NAE / NAE
same,Brain morphometric evaluation,"[4]; P0, F1, (F2)",NAE / NAE
same,Brain weight,"[4]; P0, F1, (F2)",NAE / NAE
same,Cervix HP,"[4]; P0, F1, (F2)",NAE / NAE
same,Coagulating gland HP,"[4]; P0, F1, (F2)",NAE / NAE
same,Coagulating gland weight,"[4]; P0, F1, (F2)",NAE / NAE
same,Colloid area (thyroid HP),"[4]; P0, F1, (F2)",NAE / NAE
same,Dystocia,"[4]; P0, F1, (F2)",NAE / NAE
same,Epididymis HP,"[4]; P0, F1, (F2)",NAE / NAE
same,Epididymis weight,"[4]; P0, F1, (F2)",NAE / NAE
same,Fertility,"[4]; P0, F1, (F2)",NAE / NAE
same,Foetal development,"[4]; P0, F1, (F2)",NAE / NAE
same,Functional observation battery,"[4]; P0, F1, (F2)",NAE [h] / NAE
same,Gestation length,"[4]; P0, F1, (F2)",NAE / NAE
same,Litter size,"[4]; P0, F1, (F2)",NAE / NAE
same,Litter viability,"[4]; P0, F1, (F2)",NAE / NAE
same,Liver weight,"[4]; P0, F1, (F2)",NAE / NAE
same,Mammary gland HP; females,"[4]; P0, F1, (F2)",NAE / NAE
same,Mammary gland HP; males,"[4]; P0, F1, (F2)",NAE / NAE
same,Motor activity,"[4]; P0, F1, (F2)",NAE / NAE
same,Nipple development,"[4]; P0, F1, (F2)",NAE / NAE
same,"No. of implantations, corpora lutea","[4]; P0, F1, (F2)",NAE / NAE
same,No. of live births,"[4]; P0, F1, (F2)",NAE / NAE
same,No. of ovarian follicles,"[4]; P0, F1, (F2)",NAE / NAE
same,Oestrus cyclicity,"[4]; P0, F1, (F2)",NAE / NAE
same,Offspring: learning & memory,"[4]; P0, F1, (F2)",NAE / NAE
same,Ovary HP,"[4]; P0, F1, (F2)",NAE / NAE
same,Ovary weight,"[4]; P0, F1, (F2)",NAE / NAE
same,Oviduct HP,"[4]; P0, F1, (F2)",NAE / NAE
same,Pituitary HP,"[4]; P0, F1, (F2)",NAE / NAE
same,Pituitary weight,"[4]; P0, F1, (F2)",NAE / NAE
same,Postimplantation loss,"[4]; P0, F1, (F2)",NAE / NAE
same,"Presence of anomalies (external, visceral, skeletal)","[4]; P0, F1, (F2)",NAE / NAE
same,Prostate HP,"[4]; P0, F1, (F2)",NAE / NAE
same,Prostate weight,"[4]; P0, F1, (F2)",NAE / NAE
same,Pup development,"[4]; P0, F1, (F2)",NAE / NAE
same,Reproduction,"[4]; P0, F1, (F2)",NAE / NAE
same,Seminal vesicles HP,"[4]; P0, F1, (F2)",NAE / NAE
same,Seminal vesicles weight,"[4]; P0, F1, (F2)",NAE / NAE
same,Sperm morphology,"[4]; P0, F1, (F2)",NAE / NAE
same,Sperm motility,"[4]; P0, F1, (F2)",NAE / NAE
same,Sperm numbers,"[4]; P0, F1, (F2)",NAE / NAE
same,Testis HP,"[4]; P0, F1, (F2)",NAE / NAE
same,Testis weight,"[4]; P0, F1, (F2)",NAE / NAE
same,Thyroid HP,"[4]; P0, F1, (F2)",NAE / NAE
same,Thyroid stimulating hormone level,"[4]; P0, F1, (F2)",NAE / NAE
same,Thyroid weight,"[4]; P0, F1, (F2)",NAE / NAE
same,Time to mating,"[4]; P0, F1, (F2)",NAE / NAE
same,Triiodothyronine / thyroxine level,"[4]; P0, F1, (F2)",NAE / NAE
same,Uterus HP (with cervix),"[4]; P0, F1, (F2)",NAE / NAE
same,Uterus weight (with cervix),"[4]; P0, F1, (F2)",NAE / NAE
same,Vagina HP,"[4]; P0, F1, (F2)",NAE / NAE
same,Vaginal smears,"[4]; P0, F1, (F2)",NAE / NAE
same,Alterations of the parameters addressed in OECD TG 443,[4]; up to 1000 mg/kg bw/day,no toxicologically relevant alterations
same,Rank of oestrogen receptor activation among shorter-chained parabens,[5],the least
same,"NOAEL, reproductive toxicity",[6],NOAEL: 1000 (OECD 422; v 2016) mg/kg body weight/day
same,"NOAEL, reproductive toxicity",[6]; listed as methyl paraben,1000 mg/kg body weight/day
same,Treatment-related effects in parental animals or pups,[6]; OECD TG 422,no treatment-related effects
same,Adrenals HP,"[6]; P0, F1",NAE / NAE
same,Adrenals weight,"[6]; P0, F1",NAE / NAE
same,Brain weight,"[6]; P0, F1",NAE / NAE
same,Coagulating gland HP,"[6]; P0, F1",NAE / NAE
same,Epididymis HP,"[6]; P0, F1",NAE / NAE
same,Epididymis weight,"[6]; P0, F1",NAE / NAE
same,Fertility,"[6]; P0, F1",NAE / NAE
same,Foetal development,"[6]; P0, F1",NAE / NAE
same,Gestation length,"[6]; P0, F1",NAE / NAE
same,Litter size,"[6]; P0, F1",NAE / NAE
same,Litter viability,"[6]; P0, F1",NAE / NAE
same,Liver weight,"[6]; P0, F1",NAE / NAE
same,Mammary gland HP; males,"[6]; P0, F1",NAE / NAE
same,Nipple development,"[6]; P0, F1",NAE / NAE
same,"No. of implantations, corpora lutea","[6]; P0, F1",NAE / NAE
same,No. of live births,"[6]; P0, F1",NAE / NAE
same,Oestrus cyclicity,"[6]; P0, F1",NAE / NAE
same,Ovary HP,"[6]; P0, F1",NAE / NAE
same,Ovary weight,"[6]; P0, F1",NAE / NAE
same,Postimplantation loss,"[6]; P0, F1",NAE / NAE
same,Pre-implantation loss,"[6]; P0, F1",NAE / NAE
same,"Presence of anomalies (external, visceral, skeletal)","[6]; P0, F1",NAE / NAE
same,Prostate HP,"[6]; P0, F1",NAE / NAE
same,Prostate weight,"[6]; P0, F1",NAE / NAE
same,Reproduction,"[6]; P0, F1",NAE / NAE
same,Seminal vesicles HP,"[6]; P0, F1",NAE / NAE
same,Seminal vesicles weight,"[6]; P0, F1",NAE / NAE
same,Testis HP,"[6]; P0, F1",NAE / NAE
same,Testis weight,"[6]; P0, F1",NAE / NAE
same,Thyroid stimulating hormone level,"[6]; P0, F1",NAE / NAE
same,Time to mating,"[6]; P0, F1",NAE / NAE
same,Triiodothyronine / thyroxine level,"[6]; P0, F1",NAE / NAE
same,Uterus HP (with cervix),"[6]; P0, F1",NAE / NAE
same,Uterus weight (with cervix),"[6]; P0, F1",NAE / NAE
same,Vagina HP,"[6]; P0, F1",NAE / NAE
same,Vaginal smears,"[6]; P0, F1",NAE / NAE
same,Cytogenicity in mammalian cells classification,[7],Clastogenic with metabolic activation (OECD 473; 1987) [d]
same,Overall WoE conclusion on genotoxicity,[8],"[d] While methyl paraben exhibited in vitro clastogenicity with metabolic activation in an OECD TG 473 study, absence of in vivo clastogenicity in an OECD TG 478 study is overriding in the WoE evaluation so that the overall WoE conclusion is absence of genotoxicity"
